# Assay results published in PubChem BioAssay (NCI).
# “And” between values parts separate entries of the source, which are not always exact repeats. Identical values can stand only once.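 Exposure lasted 48 hours, with cells grown in 96-well plates and compounds tested at five concentrations. The concentration for 50% growth inhibition is given as GI50. TGI: total growth inhibition.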
# Columns and labels:
# Assay in all cases: NCI anticancer screen, dose series, 48 h
# A498 renal = test system: A498 renal
# CAKI-1 renal = test system: CAKI-1 renal
# MCF7 breast = test system: MCF7 breast
# MOLT-4 leukemia = test system: MOLT-4 leukemia
# NCI-H23 lung = test system: NCI-H23 lung
# RPMI-8226 leukemia = test system: RPMI-8226 leukemia
# SW-620 colon = test system: SW-620 colon
# TK-10 renal = test system: TK-10 renal
# UACC-257 melanoma = test system: UACC-257 melanoma
# UO-31 renal = test system: UO-31 renal
SMILES,GI50 (A498 renal) [µM],TGI (A498 renal),GI50 (CAKI-1 renal) [µM],TGI (CAKI-1 renal),GI50 (MCF7 breast) [µM],TGI (MCF7 breast),GI50 (MOLT-4 leukemia) [µM],TGI (MOLT-4 leukemia) [µM],GI50 (NCI-H23 lung) [µM],TGI (NCI-H23 lung),GI50 (RPMI-8226 leukemia) [µM],TGI (RPMI-8226 leukemia),GI50 (SW-620 colon) [µM],TGI (SW-620 colon),GI50 (TK-10 renal) [µM],TGI (TK-10 renal),GI50 (UACC-257 melanoma) [µM],TGI (UACC-257 melanoma),GI50 (UO-31 renal) [µM],TGI (UO-31 renal)
O=C(Nc1nc(-c2ccccc2Cl)cs1)c1cc(-c2ccc(Cl)cc2)nc2ccc(Cl)cc12,27.4,> 100 µM,19.6,> 100 µM,0.678,> 100 µM,3.42,> 100,3.8,> 100 µM,1.38,> 100 µM,4.01,> 100 µM,15,> 100 µM,14.9,> 100 µM,2.46,52.6 µM
O=C(O)C1C2CCC(O2)C1C(=O)NCc1cccnc1 (configuration not stated),–,> 100 µM,–,> 100 µM,–,> 100 µM,–,–,–,> 100 µM,–,> 100 µM,–,> 100 µM,–,> 100 µM,–,> 100 µM,–,> 100 µM
CCCCCCn1c2c(c3c(O)cccc31)C(=O)c1ccccc1-2,18.9,33.2 µM,26.9,63.8 µM,18,35.2 µM,28.7,> 100,18.4,34.7 µM,20.3,41.9 µM,18.2,34.8 µM,11,24.2 µM,15.1,32.9 µM,16.1,31.2 µM
CSc1nc(SC)c2c(C)cn(C3OC(C)C(O)C(O)C3O)c2n1 (configuration not stated),–,74.4 µM,–,–,–,> 100 µM,–,> 100,–,> 100 µM,–,> 100 µM,–,> 100 µM,–,> 100 µM,–,–,–,> 100 µM
O=C(O)c1c[nH]c2c(ccc3[nH]cc(C(=O)O)c(=O)c32)c1=O,–,> 100 µM,–,> 100 µM,–,> 100 µM,–,> 100,–,> 100 µM,–,> 100 µM,–,> 100 µM,–,> 100 µM,–,> 100 µM,–,> 100 µM
ClCc1ccc(-c2ccc(Cn3cnc4c(Cl)ncnc43)cc2)cc1,20.5,37 µM,1.47,2.87 µM,1.1,12.4 µM,1.79,> 100,1.84,3.65 µM,2.05,4.87 µM,2.43,6.63 µM,1.65,3.58 µM,3.76,24.7 µM,2.29,5.21 µM
O=C(NC(Cc1ccccc1)C(=O)CCl)OCc1ccccc1 (configuration not stated),10.2,23 µM and 27.6 µM,7.52,21.2 µM and 17.3 µM,2.96,13.5 µM,3.56,25.4,10.5,30.7 µM and 26.1 µM,2.44,–,1.91,5.23 µM and 15.8 µM,2.58,9.43 µM and 28.4 µM,–,26.7 µM and 26.2 µM,3.91,16.4 µM and 25.6 µM
Cc1cc(Cl)ccc1Nc1nc2c(s1)C(=O)c1ccccc1C2=O,–,42 µM,–,20.3 µM,–,3.72 µM,–,> 25.4,–,3.96 µM,–,11.1 µM,–,4.01 µM,–,33.4 µM,–,5.64 µM,–,11.6 µM
C=CCCCC(O)c1ccc(C(O)c2cnc3ccccc3c2)o1 (configuration not stated),–,–,31.4,98.4 µM,26,> 100 µM,32.1,82,14.3,49.6 µM,17.9,72.2 µM,38.1,> 100 µM,33.2,67 µM,18.8,61.4 µM,50.9,> 100 µM
CCOC(=O)Nc1cc(-c2ccc(C)c(NS(C)(=O)=O)c2)nn2c(C)nnc12,1.59,5.88 µM,0.537,23.6 µM,0.395,> 100 µM,2.45,9.94,1.93,9.16 µM,0.549,4.97 µM,2.42,30.9 µM,0.465,7.36 µM,1.11,> 100 µM,0.697,> 100 µM
COC1/C=C/OC2(C)Oc3c(C)c(O)c4c(O)c(c(C=NOC(c5ccccc5)c5ccccc5)c(O)c4c3C2=O)NC(=O)/C(C)=C/C=C/C(C)C(O)C(C)C(O)C(C)C(OC(C)=O)C1C (configuration not stated),1.18,4.6 µM,1.77,7.15 µM,1.31,3.81 µM,1.8,8.03,1.48,5.43 µM,1.16,3.19 µM,1.35,3.72 µM,1.14,3.59 µM,1.14,3.08 µM,1.65,7.74 µM
CS(=O)(=O)c1ccc(-c2cnc(NCc3ccco3)n3cnnc23)cc1,> 100,> 100 µM,> 100,> 100 µM,60.4,> 100 µM,37.4,> 100,> 100,> 100 µM,53.3,> 100 µM,> 100,> 100 µM,> 100,> 100 µM,24.7,> 100 µM,38.8,> 100 µM
COc1cc(/C=C2\CC3C4CCC5=CC(=O)CC[C@]5(C)C4CC[C@]3(C)C2=O)ccc1OCCN1CCCCC1 (some centres not stated),1.9,12.1 µM,2.29,5.89 µM,3.35,8.55 µM,2.73,75.2,5.33,25.7 µM,1.88,5.05 µM,2.93,11.7 µM,2.45,6.96 µM,4.8,18.4 µM,7.87,> 100 µM
COc1ccc(/C=C/C(=O)c2ccccc2)cc1OC,–,38.6 µM and 32.2 µM,14.1,38.2 µM and 35.6 µM,3.3,11.8 µM and 13.4 µM,17.9,> 100,15.8,50.1 µM and 41.3 µM,3.93,> 100 µM and 25.3 µM,–,> 100 µM and 18.4 µM,13.6,32 µM and 27.8 µM,–,31.7 µM and 31.4 µM,–,27.2 µM and 27.3 µM
Cc1nc2cc(Nc3nc(Nc4ccc(F)cc4)nc(N4CCCC4)n3)ccc2n1Cc1ccccc1,1.45,3.24 µM,–,–,2.22,7.44 µM,2.52,5.68,2.2,5.31 µM,1.86,4.55 µM,1.66,3.14 µM,1.89,3.37 µM,2.32,5.88 µM,1.51,2.92 µM
COc1cccc(/C=C2\CCc3ccccc3C2=O)c1,12.1,25.1 µM,11.3,36.4 µM,3.53,17.8 µM,3.38,25.2,16.3,40.1 µM,2.89,8.94 µM,3.7,13.4 µM,15.1,34.6 µM,13.4,28.9 µM,10.9,24.3 µM
COc1cc2oc(-c3ccc(O)cc3)cc(=O)c2c(OC)c1O,–,–,–,> 100 µM,–,> 100 µM,–,> 100,–,> 100 µM,–,> 100 µM,–,> 100 µM,–,> 100 µM,–,> 100 µM,–,> 100 µM
NC(CSC1(c2ccc(Cl)cc2)c2ccccc2-c2ccccc21)C(=O)O (configuration not stated),–,35 µM,–,> 100 µM,–,39 µM,–,71.5,–,41.1 µM,–,> 100 µM,–,> 100 µM,–,48.3 µM,–,34.4 µM,–,98.8 µM
CCN(CC)CCNC(=O)C(Cl)=C1C(Cl)=C(Cl)C(Cl)=C1Cl,2.59,12.5 µM,2.73,> 100 µM,2.8,13.5 µM,–,–,5.44,26.5 µM,3.02,10.8 µM,3.25,12.5 µM,3.07,> 100 µM,2.49,11.7 µM,6.88,26 µM
N/C(=N\C(N)=N\c1nc2ccccc2s1)c1ccnc(Br)c1,5.14,41 µM,3.33,> 100 µM,5.49,> 100 µM,4.35,> 100,14.2,> 100 µM,4.29,> 100 µM,3.91,> 100 µM,52,> 100 µM,> 100,> 100 µM,3.56,84 µM
CNC(=O)c1cc(Oc2ccc3nc(NC(=O)Nc4cc(C(F)(F)F)cc(C(F)(F)F)c4)sc3c2)ccn1,1.02,2.46 µM,1.15,2.69 µM,1.05,2.93 µM,–,–,0.573,2.38 µM,1.02,3.81 µM,1.56,3.29 µM,1.67,3.35 µM,1.15,2.62 µM,1.26,2.68 µM
CC/C(=C(/CC)c1ccc(O)cc1)c1ccc(O)cc1,12.4,25.2 µM,4.22,27.8 µM,5.78,19.3 µM,5.29,66.4,5.76,23 µM,–,–,3.88,14.5 µM,14.8,37.6 µM,7.04,22.7 µM,6.38,21.6 µM
O=[N+]([O-])c1cccc([I+]c2ccccc2)c1,10.4,28.4 µM,3.42,49 µM,8.29,41.5 µM,3.4,39,10.9,31.2 µM,4.09,30.7 µM,6.42,26.7 µM,–,–,12.1,28 µM,8.71,85.5 µM
COC(=O)[C@H](C)[C@@H]1CC[C@](C)(CCC2=C(C)CCCC2(C)C)OO1,–,–,–,> 25 µM,–,> 25 µM,–,> 25,–,> 25 µM,–,> 25 µM,–,> 25 µM,–,> 25 µM,–,> 25 µM,–,> 25 µM
CC(C)(N)C(=O)N[C@@H]1C(=O)N2[C@@H]1SC(C)(C)[C@@H]2C(=O)O,–,> 100 µM,–,> 100 µM,–,> 100 µM,–,–,–,> 100 µM,–,> 100 µM,–,> 100 µM,–,> 100 µM,–,> 100 µM,–,> 100 µM
CN1c2ccccc2S(=O)(=O)n2c(COc3ccccc3)nnc21,–,> 100 µM,–,> 100 µM,–,> 100 µM,–,> 100,–,> 100 µM,–,–,–,> 100 µM,–,> 100 µM,–,> 100 µM,–,> 100 µM
O=C(Nc1ccc(Cl)cc1)c1cc2ccccc2cc1OP(=O)(O)O,2.79,19.4 µM,1.77,11.1 µM,5.52,40.9 µM,24.8,> 100,2.42,9.95 µM,1.52,6.02 µM,4.07,37.5 µM,3.65,14.1 µM,–,–,3.75,> 100 µM
C=C(C)[C@@H]1CC[C@]2(C(=O)N3CCN(C)CC3)CC[C@]3(C)[C@H](CC[C@@H]4[C@@]5(C)CC[C@H](O)C(C)(C)[C@@H]5CC[C@]43C)[C@@H]12,1.5,2.9 µM,1.59,3.05 µM,1.79,4.22 µM,–,–,1.92,3.82 µM,–,–,1.74,3.7 µM,1.79,3.38 µM,1.81,3.57 µM,1.67,3.24 µM
O=C(NCCCl)NCc1ccccc1,–,> 100 µM,–,> 100 µM,–,> 100 µM,–,> 100,–,> 100 µM,–,> 100 µM,–,> 100 µM,–,–,–,> 100 µM,–,> 100 µM
CCC1OC(=O)CC(O)C(C)C(OC2OC(C)CC(N(C)C)C2O)C(CC=O)CC(C)C(=O)/C=C/C2(C)OC2C1C (configuration not stated),–,71.8 µM,–,74.1 µM,–,25 µM,–,43.4,–,52.3 µM,–,> 100 µM,–,34.8 µM,–,–,–,> 100 µM,–,80.4 µM
